Assay results: BindingDB's records for doi:10.1021/jm0256169 (Eli Lilly, 2003)

How the values were obtained:
[1] = molecular target: cAMP-dependent protein kinase catalytic subunit alpha (Bos taurus, UniProt P00517); assay: Kinase Inhibition Assay; conditions: 25 °C
Description: (§1) In vitro kinase assay using purified enzyme, was incubated at room temperature with substrate, and test compounds in the presence of ATP/[gamma-33P]ATP. 33P incorporation was measured with a Top Count (Packard). IC50 is the inhibitor concentration which inhibits 50% of kinase activity that catalyzes the transfer of the terminal phosphate from 33P labeled ATP to the substrate.

[2] = molecular target: Calcium/calmodulin-dependent protein kinase type II subunit alpha (Rattus norvegicus, UniProt P11275); assay: Kinase Inhibition Assay; conditions: 25 °C
Description: as §1

Calcium/calmodulin-dependent protein kinase type II subunit alpha, sequence (P11275 whole entry): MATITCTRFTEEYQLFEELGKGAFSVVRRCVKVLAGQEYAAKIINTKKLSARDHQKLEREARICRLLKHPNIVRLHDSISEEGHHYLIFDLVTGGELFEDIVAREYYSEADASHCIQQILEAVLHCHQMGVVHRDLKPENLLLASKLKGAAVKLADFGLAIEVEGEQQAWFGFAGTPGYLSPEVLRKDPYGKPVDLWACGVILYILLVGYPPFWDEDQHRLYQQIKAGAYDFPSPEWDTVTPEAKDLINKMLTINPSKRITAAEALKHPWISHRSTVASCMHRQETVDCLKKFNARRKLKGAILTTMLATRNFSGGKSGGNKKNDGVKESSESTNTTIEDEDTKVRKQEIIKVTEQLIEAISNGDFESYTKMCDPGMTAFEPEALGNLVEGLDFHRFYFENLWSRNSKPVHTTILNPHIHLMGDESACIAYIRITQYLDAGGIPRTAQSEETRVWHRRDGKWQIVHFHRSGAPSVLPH

Row | SMILES | IC50 [1] [µM] | EC50 [2] [µM] | IC50 [2] [µM]
1 | O=C1NC(=O)c2c1c1c3ccccc3[nH]c1c1[nH]c3ccccc3c21 [6,7,12,13-Tetrahydro-5,7-dioxo-5H-indolo[2,3-a]pyrrolo[3,4-c]carbazole] | > 2 |  | 
2 | O=C1NC(=O)c2c1c1c3ccccc3[nH]c1c1[nH]c3c(Br)cccc3c21 [5-bromo-3,13,23-triazahexacyclo[14.7.0.0^{2,10}.0^{4,9}.0^{11,15}.0^{17,22}]tricosa-1(16),2(10),4(9),5,7,11(15),17(22),18,20-nonaene-12,14-dione] | > 20 |  | 
3 | O=C1NC(=O)c2c1c1c3ccccc3[nH]c1c1[nH]c3cc(Cl)ccc3c21 [6-chloro-3,13,23-triazahexacyclo[14.7.0.0^{2,10}.0^{4,9}.0^{11,15}.0^{17,22}]tricosa-1(16),2(10),4(9),5,7,11(15),17(22),18,20-nonaene-12,14-dione] | > 2 |  | 
4 | O=C1NC(=O)c2c1c1c3ccccc3[nH]c1c1[nH]c3cc(C(F)(F)F)ccc3c21 [6-(trifluoromethyl)-3,13,23-triazahexacyclo[14.7.0.0^{2,10}.0^{4,9}.0^{11,15}.0^{17,22}]tricosa-1(16),2(10),4(9),5,7,11(15),17(22),18,20-nonaene-12,14-dione] | > 2 |  | > 2
5 | O=C1NC(=O)c2c1c1c3ccccc3[nH]c1c1[nH]c3ccc(Br)cc3c21 [7-bromo-3,13,23-triazahexacyclo[14.7.0.0^{2,10}.0^{4,9}.0^{11,15}.0^{17,22}]tricosa-1(16),2(10),4(9),5,7,11(15),17(22),18,20-nonaene-12,14-dione] | > 20 | 0.07 | < 1.25
6 | Cc1ccc2c(c1)[nH]c1c3[nH]c4ccccc4c3c3c(c21)C(=O)NC3=O [6-methyl-3,13,23-triazahexacyclo[14.7.0.0^{2,10}.0^{4,9}.0^{11,15}.0^{17,22}]tricosa-1(16),2(10),4(9),5,7,11(15),17(22),18,20-nonaene-12,14-dione] | > 2 |  | 
7 | COc1ccc2c(c1)[nH]c1c3[nH]c4ccccc4c3c3c(c21)C(=O)NC3=O [6-methoxy-3,13,23-triazahexacyclo[14.7.0.0^{2,10}.0^{4,9}.0^{11,15}.0^{17,22}]tricosa-1(16),2(10),4(9),5,7,11(15),17(22),18,20-nonaene-12,14-dione] | > 2 |  | 
8 | O=C1NC(=O)c2c1c1c3ccccc3[nH]c1c1[nH]c3cc(Br)ccc3c21 [6-bromo-3,13,23-triazahexacyclo[14.7.0.0^{2,10}.0^{4,9}.0^{11,15}.0^{17,22}]tricosa-1(16),2(10),4(9),5,7,11(15),17(22),18,20-nonaene-12,14-dione] | > 20 | 0.07 | 

More lines, now with the values ahead:

Row | IC50 [1] [µM] | EC50 [2] [µM] | IC50 [2] [µM] | SMILES
9 | > 2 | 0.08 |  | Cn1c2ccccc2c2c3c(c4c5ccc(Br)cc5[nH]c4c21)C(=O)NC3=O [indolocarbazole deriv. 4(f)]
10 | > 2 | 0.04 |  | O=C1NC(=O)c2c1c1c3ccccc3[nH]c1c1[nH]c3cc(F)ccc3c21 [6-fluoro-3,13,23-triazahexacyclo[14.7.0.0^{2,10}.0^{4,9}.0^{11,15}.0^{17,22}]tricosa-1(16),2(10),4(9),5,7,11(15),17(22),18,20-nonaene-12,14-dione]
11 | > 2 |  | > 2 | COc1ccc2c(c1)[nH]c1c3[nH]c4cc(Br)ccc4c3c3c(c21)C(=O)NC3=O [6-bromo-20-methoxy-3,13,23-triazahexacyclo[14.7.0.0^{2,10}.0^{4,9}.0^{11,15}.0^{17,22}]tricosa-1(16),2(10),4(9),5,7,11(15),17(22),18,20-nonaene-12,14-dione]
12 | > 2 |  | > 2 | Cn1c2ccccc2c2c3c(c4c5ccc(F)cc5[nH]c4c21)C(=O)NC3=O [indolocarbazole deriv. 4(h)]
